Measured values published in patent US10086039B2, “Lamin A, an activator of longevity/anti-aging SIRT1 protein” (THE UNIVERSITY OF HONG KONG, priority 2012, dated 2018).

Legend:
Zmpste24−/− mice [1] = assay: Micro-CT of trabecular bone and bone mineral density in Zmpste24−/− mice; format: in vivo, mouse; conditions: resveratrol 20 μg/ml in drinking water, 4 months
Procedure: (§1) Zmpste24^−/− mice have been described previously (Pendas et al., 2002). Mouse experimentation was performed in accordance with the guidelines of the Committee on the Use of Live Animals in Teaching and Research (CULATR) at the University of Hong Kong. New-born Zmpste24^−/− mice and wild-type controls were fed with resveratrol (20 μg/ml) or N-acetyl Cysteine (1 mg/ml) in drinking water. The survival of resveratrol-treated, NAC-treated, or vehicle-treated Zmpste24^−/− mice was recorded and their body weight was monitored weekly. The trabecular bone organization and bone mineral density were determined by micro-CT. The survival rate was analyzed by Kaplan-Meier method and statistical comparison was performed by Log-rank (Mantel-Cox) Test.

Zmpste24−/− mice [2] = assay: BMSC colony-forming efficiency after in vivo treatment of Zmpste24−/− mice; parameters: species or system mouse; conditions: resveratrol 20 μg/ml in drinking water, four months, vs vehicle
Procedure: as §1
Bone marrow stromal cells were isolated and cultured according to modified protocol (Enumeration and Expansion of Mouse Mesenchymal Progenitor Cells Using MESENCUILT®, Stemcell Technologies, Canada). Briefly, bone marrow cells were flushed out from femurs and tibias with α-MEM (Invitrogen, Carlsbad, Calif., USA) supplemented with 20% FBS, and plated in petri dishes. Non-adherent cells were removed on day 3 and medium was replaced every 3 days. […] Colonies containing more than 50 cells were counted. BMSC colony forming efficiency was calculated as number of colonies formed by […] bone marrow nucleated cells. […]

Zmpste24−/− MEFs = assay: SA-β-galactosidase senescence assay in MEFs; format: cell-based, mouse; conditions: resveratrol-treated vs saline-treated
Procedure: SA-β-galactosidase assay was performed using a Cellular Senescence Assay Kit (Chemicon International, CA, USA), following the manufacturer's instructions. For MEFs, resveratrol was supplemented in the complete medium at passage 4 and SA-β-galactosidase assay was performed at passage 6. To quantify SA-β-galactosidase staining, the blue-dyed precipitate was extracted with 100 μl DMSO and the absorbance at 415 nm was recorded.

SIRT1 = target: T1, SIRT1 (Homo sapiens, UniProt Q96EB6); assay: SIRT1 deacetylation assay on native full-length acetyl FLAG-p53 (Western blotting, anti-acetyl lysine); format: biochemical; parameters: purchased Biomol (Hamburg, Germany)
T1 sequence (Q96EB6 1-747): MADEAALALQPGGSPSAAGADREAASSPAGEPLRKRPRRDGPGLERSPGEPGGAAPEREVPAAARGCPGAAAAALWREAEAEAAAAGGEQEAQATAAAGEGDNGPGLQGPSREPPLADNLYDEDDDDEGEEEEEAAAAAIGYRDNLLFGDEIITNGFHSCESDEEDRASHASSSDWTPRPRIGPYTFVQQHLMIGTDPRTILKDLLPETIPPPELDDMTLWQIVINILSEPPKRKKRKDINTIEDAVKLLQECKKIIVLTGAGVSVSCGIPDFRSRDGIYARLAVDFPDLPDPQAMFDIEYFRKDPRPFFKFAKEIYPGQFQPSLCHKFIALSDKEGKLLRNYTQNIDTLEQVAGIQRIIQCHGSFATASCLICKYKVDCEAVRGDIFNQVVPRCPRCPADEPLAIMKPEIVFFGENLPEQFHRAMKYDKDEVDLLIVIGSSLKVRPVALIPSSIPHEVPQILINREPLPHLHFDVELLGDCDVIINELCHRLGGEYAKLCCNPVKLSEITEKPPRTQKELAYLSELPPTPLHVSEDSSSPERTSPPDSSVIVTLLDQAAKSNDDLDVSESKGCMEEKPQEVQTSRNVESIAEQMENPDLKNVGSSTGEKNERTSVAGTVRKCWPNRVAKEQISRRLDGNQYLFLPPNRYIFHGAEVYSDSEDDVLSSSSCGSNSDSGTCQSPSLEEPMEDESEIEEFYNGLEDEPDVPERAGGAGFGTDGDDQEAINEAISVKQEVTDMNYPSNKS
Procedure: SIRT1 deacetylation assay on fluorophore-conjugated synthetic p53 peptide was performed with SIRT1 Fluorimetric Drug Discovery Kit (Biomol, Hamburg, Germany) according to the manufactory's instruction. Cells were fractionated as described above except that protease inhibitors were NOT included and the nuclear matrix fraction was suspended into the assay buffer provided by the supplier. Different cell fractions or recombinant human lamin A (rhLamin A, Diatheva, Italy) were added in the reaction mix of SIRT1 Fluorimetric Drug Discovery Kit, incubated for 20 min at 37° C., and then the reaction was stopped and fluorescent signal was detected. SIRT1 deacetylase activity on native target was assayed using SIRT1 assay Kit from Sigma (USA). Constructs encoding FLAG-p53 and HA-p300 were co-transfected into HEK293 cells; FLAG-p53 was immunoprecipitated by anti-FLAG M2 Agarose (Sigma) followed by elution with FLAG peptide (Sigma). Purified acetyl FLAG-p53 was incubated with recombinant human SIRT1 (rhSIRT1) and NAD+ for 30 min at 37° C., in the presence or absence of rhLamin A or resveratrol. The acetylation level of FLAG-p53 was determined by Western blotting with pan anti acetyl lysine antibodies.
To further test the effect of rhLamin A on the native target of SIRT1, acetyl p53 was purified by anti-FLAG immunoprecipitation in HEK293 cells ectopically expressing FLAG-p53 and p300, and SIRT1 deacetylation assay was performed as described in Materials and Methods.

In the case of Oc1ccc(C=Cc2cc(O)cc(O)c2)cc1 [resveratrol], the bone mineral density (Zmpste24−/− mice [1]) is reported as “increased bone mineral density”, the trabecular structural organization (Zmpste24−/− mice [1]) is reported as “improved the structural organization” and the trabecular thickness (Zmpste24−/− mice [1]) is reported as “increased the trabecular thickness”. For the same molecule, the BMSC colony-forming efficiency (Zmpste24−/− mice [2]) was “significantly increased”, the “β-galactosidase activity (senescence)” value (Zmpste24−/− MEFs) was “no obvious difference” and the “activation of SIRT1 deacetylase activity, native full-length FLAG-p53 as substrate” value (SIRT1; in the presence of rhLamin A) was “activated SIRT1 in a lamin A dose-dependent manner”. For the same molecule, the “activation of SIRT1 deacetylase activity, native full-length FLAG-p53 as substrate” value (SIRT1; without rhLamin A) was “does not directly activate”.
